Data published in ChEMBL document CHEMBL4823249, “Discovery of a Pyrimidinedione Derivative as a Potent and Orally Bioavailable Axl Inhibitor” (J Med Chem, 2021).
Activity calls are given as the source filed them. The calls are words filed in the database; no cut-off is given here.

How the values were obtained:
EBC-1 = assay: Antiproliferative activity against human EBC-1 cells incubated for 72 hrs by SRB or CCK8 assay; type: functional, cell-based; settings: EBC-1, 72 h
[1] = biological target: Calcium/calmodulin-dependent protein kinase type 1 (Homo sapiens, UniProt Q14012); assay: Inhibition of recombinant human CaMK1 (2 to end residues) using […] as substrate incubated for 40 mins in presence of [gamma-33ATP] by scintillation counting based radiometry assay
[2] = Toxicity in BALB/c nude mouse assessed as reduction in body weight at 100 mg/kg, po administered once daily for 14 days; type: organism-based; settings: in vivo, 336 h, time 14 day
BT-474 = assay: Antiproliferative activity against human BT-474 cells incubated for 72 hrs by SRB or CCK8 assay; type: functional, cell-based; settings: BT-474, 72 h
[3] = Antiproliferative activity against human JHH7 cells incubated for 72 hrs by SRB or CCK8 assay; type: functional, cell-based; settings: JHH7, 72 h
[4] = biological target: T1, Hepatocyte growth factor receptor (Homo sapiens, UniProt P08581); assay: Inhibition of MET signaling in human EBC1 cells assessed as reduction in phosphorylation of AKT after 2 hrs by Western blotting analysis; type: cell-based; settings: EBC-1, dose 10-100 nM
KMS-11 = assay: Antiproliferative activity against human KMS-11 cells incubated for 72 hrs by SRB or CCK8 assay; type: functional, cell-based; settings: KMS-11, 72 h
CDK4/Cyclin D3 = CDK4/Cyclin D3 (Homo sapiens, UniProt P11802); assay: Inhibition of recombinant full length human CDK4/CyclinD3 using Rb fragment as substrate incubated for 40 mins in presence of [gamma-33ATP] by scintillation counting based radiometry assay; type: protein-complex assay
[5] = biological target: Vascular endothelial growth factor receptor 2 (Homo sapiens, UniProt P35968); assay: Inhibition of recombinant human KDR (790 to end residues) using myelin basic protein as substrate incubated for 40 mins by [gamma-33P]-ATP scintillation counting based radiometry assay
MDA-MB-231 = assay: Antiproliferative activity against human MDA-MB-231 cells incubated for 72 hrs by SRB or CCK8 assay; type: functional, cell-based; settings: MDA-MB-231, 72 h
[6] = biological target: Platelet-derived growth factor receptor alpha (Homo sapiens, UniProt P16234); assay: Inhibition of human PDGFRalpha (550 to end residues) using poly(Glu, Tyr) 4:1 as substrate measured after 40 mins in presence of [gamma33P]ATP by scintillation counting based radiometry assay
[7] = biological target: T1, Hepatocyte growth factor receptor; assay: Inhibition of MET signaling in human EBC1 cells assessed as reduction in phosphorylation of MET after 2 hrs by Western blotting analysis; type: cell-based; settings: EBC-1, dose 10-100 nM
[8] = AUC(0 to infinity) in ICR mouse at 3 mg/kg, po measured upto 24 hrs by LC-MS analysis; type: ADME, organism-based; design: route oral, dose 3 mg/kg, time <=24; settings: in vivo
[9] = biological target: Serine/threonine-protein kinase mTOR (Homo sapiens, UniProt P42345); assay: Inhibition of full length recombinant human mTOR incubated for 40 mins in presence of [gamma-33ATP] by scintillation counting based radiometry assay
NCI-H1299 [10] = assay: Antiproliferative activity against human NCI-H1299 cells at 5 to 125 uM incubated for 72 hrs by SRB or CCK8 assay; type: functional, cell-based; settings: dose 5-125 µM
[11] = biological target: Mitogen-activated protein kinase 1 (Homo sapiens, UniProt P28482); assay: Inhibition of human full length recombinant ERK2 using myelin basic protein as substrate incubated for 40 mins in presence of [gamma33P-ATP] by radiometric scintillation counting analysis
[12] = Half life in Sprague-Dawley rat at 3 mg/kg, po measured upto 24 hrs by LC-MS analysis; type: ADME, organism-based; settings: in vivo
[13] = biological target: Insulin-like growth factor 1 receptor (Homo sapiens, UniProt P08069); assay: Inhibition of human IGF1R (959 to end residues) using KKKSPGEYVNIEFG as substrate after 40 mins in presence of [gamma-33ATP] by scintillation counting based radiometry assay
U-87 MG = assay: Antitumor activity against human U-87MG cells xenografted in BALB/c nude mouse assessed as tumor growth inhibition at 100 mg/kg, po administered once daily for 14 days by caliper method; type: functional, U-87MG ATCC; settings: 336 h, time 14 day, read-out: TGI
[14] = biological target: PI3-kinase p110-delta/p85-alpha (Homo sapiens, UniProt O00329); assay: Inhibition of recombinant human full length PI3K p110delta/p85a using phosphatidylinositol-4, 5-bisphosphate as substrate incubated for 40 mins in presence of [gamma33P]ATP by scintillation counting based radiometry assay; type: protein-complex assay
[15] = AUC(0 to t) in ICR mouse at 3 mg/kg, po measured upto 24 hrs by LC-MS analysis; type: ADME, organism-based; design: route oral, dose 3 mg/kg, time <=24; settings: in vivo
BaF3 [16] = assay: Antitumor activity against mouse BaF3/TEL-AXL cells xenografted in BALB/c nude mouse assessed as tumor growth inhibition at 25 mg/kg, po administered once daily for 14 days by caliper method; type: functional; settings: 336 h, time 14 day, read-out: TGI
[17] = biological target: Proto-oncogene tyrosine-protein kinase Src (Homo sapiens, UniProt P12931); assay: Inhibition of recombinant human C-Src using KVEKIGEGTYGVVYK as substrate incubated 40 mins in presence of [gamma-33ATP] by scintillation counting based radiometry assay
[18] = biological target: Fibroblast growth factor receptor 1 (Homo sapiens, UniProt P11362); assay: Inhibition of recombinant human FGFR1 (456 to 765 residues) using KKKSPGEYVNIEF as substrate incubated for 40 mins in presence of [gamma-33ATP] by radiometric scintillation counting analysis
MKN-45 = assay: Antiproliferative activity against human MKN-45 cells incubated for 72 hrs by SRB or CCK8 assay; type: functional, cell-based; settings: MKN-45, 72 h
BaF3 [19] = assay: Antiproliferative activity against mouse BaF3/TEL-AXL cells incubated for 72 hrs by SRB or CCK8 assay; settings: BaF3, 72 h
Focal adhesion kinase 1 = Focal adhesion kinase 1 (Homo sapiens, UniProt Q05397); assay: Inhibition of human recombinant FAK1 (411 to 686 residues) using EEEEYEEEEEEYY as substrate incubated for 40 mins in presence of [gamma-33ATP] by radiometric scintillation counting analysis
[20] = biological target: Receptor tyrosine-protein kinase erbB-4 (Homo sapiens, UniProt Q15303); assay: Inhibition of recombinant human ERBB4 (706 to 991 residues) using poly(Glu, Tyr) 4:1 as substrate incubated for 40 mins in presence of [gamma-33ATP] by scintillation counting based radiometry assay
[21] = Oral availability in ICR mouse at 3 mg/kg measured upto 24 hrs by LC-MS analysis; type: ADME, organism-based; settings: in vivo
BaF3 [22] = assay: Antitumor activity against mouse BaF3/TEL-AXL cells xenografted in BALB/c nude mouse assessed as tumor growth inhibition at 5 mg/kg, po administered once daily for 14 days by caliper method; type: functional; settings: 336 h, time 14 day, read-out: TGI
NCI-H1299 [23] = assay: Antiproliferative activity against human NCI-H1299 cells incubated for 72 hrs by SRB or CCK8 assay; type: functional, cell-based; settings: NCI-H1299, 72 h
[24] = biological target: Platelet-derived growth factor receptor beta (Homo sapiens, UniProt P09619); assay: Inhibition of human PDGFRbeta (557 to end residues) using poly(Glu, Tyr) 4:1 as substrate measured after 40 mins in presence of [gamma33P]ATP by scintillation counting based radiometry assay
[25] = Cmax in ICR mouse at 3 mg/kg, po measured upto 24 hrs by LC-MS analysis; type: ADME, organism-based; design: route oral, dose 3 mg/kg, time <=24; settings: in vivo

T1 sequence (P08581 whole entry): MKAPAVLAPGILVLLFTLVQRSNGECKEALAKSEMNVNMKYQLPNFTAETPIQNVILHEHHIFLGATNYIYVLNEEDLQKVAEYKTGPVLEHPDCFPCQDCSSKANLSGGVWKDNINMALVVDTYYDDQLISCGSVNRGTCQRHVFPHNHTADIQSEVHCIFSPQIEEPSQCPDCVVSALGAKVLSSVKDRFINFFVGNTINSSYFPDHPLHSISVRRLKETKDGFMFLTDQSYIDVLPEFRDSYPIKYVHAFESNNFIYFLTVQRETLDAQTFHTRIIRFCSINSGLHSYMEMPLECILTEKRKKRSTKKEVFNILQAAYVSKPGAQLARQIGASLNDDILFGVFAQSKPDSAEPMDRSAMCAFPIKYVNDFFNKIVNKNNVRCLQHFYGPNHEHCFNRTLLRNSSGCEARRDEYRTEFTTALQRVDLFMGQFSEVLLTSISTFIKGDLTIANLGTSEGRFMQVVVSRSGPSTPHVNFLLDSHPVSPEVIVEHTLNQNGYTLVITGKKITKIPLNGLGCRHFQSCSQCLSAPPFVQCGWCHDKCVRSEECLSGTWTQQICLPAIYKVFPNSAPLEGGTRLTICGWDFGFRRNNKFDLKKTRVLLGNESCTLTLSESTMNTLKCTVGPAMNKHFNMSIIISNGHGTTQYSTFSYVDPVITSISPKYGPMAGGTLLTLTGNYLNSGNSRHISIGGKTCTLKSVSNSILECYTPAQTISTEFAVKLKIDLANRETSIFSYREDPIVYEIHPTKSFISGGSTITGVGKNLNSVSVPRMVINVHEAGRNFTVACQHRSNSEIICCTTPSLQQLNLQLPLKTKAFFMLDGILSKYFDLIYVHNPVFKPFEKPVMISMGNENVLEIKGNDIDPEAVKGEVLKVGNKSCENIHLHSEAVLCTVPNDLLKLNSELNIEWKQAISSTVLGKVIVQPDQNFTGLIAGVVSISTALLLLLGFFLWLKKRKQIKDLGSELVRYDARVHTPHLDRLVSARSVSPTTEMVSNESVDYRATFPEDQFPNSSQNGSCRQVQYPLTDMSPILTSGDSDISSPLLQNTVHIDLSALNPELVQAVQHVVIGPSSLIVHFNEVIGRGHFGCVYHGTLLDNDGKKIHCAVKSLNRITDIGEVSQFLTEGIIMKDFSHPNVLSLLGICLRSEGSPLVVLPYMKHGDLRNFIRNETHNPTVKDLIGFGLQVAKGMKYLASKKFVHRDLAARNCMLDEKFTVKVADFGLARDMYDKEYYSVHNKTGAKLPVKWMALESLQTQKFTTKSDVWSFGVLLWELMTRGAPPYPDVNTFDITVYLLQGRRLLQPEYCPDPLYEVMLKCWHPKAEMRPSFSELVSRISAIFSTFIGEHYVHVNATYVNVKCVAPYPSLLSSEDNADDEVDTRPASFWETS
Sequence of Platelet-derived growth factor receptor alpha (P16234 whole entry): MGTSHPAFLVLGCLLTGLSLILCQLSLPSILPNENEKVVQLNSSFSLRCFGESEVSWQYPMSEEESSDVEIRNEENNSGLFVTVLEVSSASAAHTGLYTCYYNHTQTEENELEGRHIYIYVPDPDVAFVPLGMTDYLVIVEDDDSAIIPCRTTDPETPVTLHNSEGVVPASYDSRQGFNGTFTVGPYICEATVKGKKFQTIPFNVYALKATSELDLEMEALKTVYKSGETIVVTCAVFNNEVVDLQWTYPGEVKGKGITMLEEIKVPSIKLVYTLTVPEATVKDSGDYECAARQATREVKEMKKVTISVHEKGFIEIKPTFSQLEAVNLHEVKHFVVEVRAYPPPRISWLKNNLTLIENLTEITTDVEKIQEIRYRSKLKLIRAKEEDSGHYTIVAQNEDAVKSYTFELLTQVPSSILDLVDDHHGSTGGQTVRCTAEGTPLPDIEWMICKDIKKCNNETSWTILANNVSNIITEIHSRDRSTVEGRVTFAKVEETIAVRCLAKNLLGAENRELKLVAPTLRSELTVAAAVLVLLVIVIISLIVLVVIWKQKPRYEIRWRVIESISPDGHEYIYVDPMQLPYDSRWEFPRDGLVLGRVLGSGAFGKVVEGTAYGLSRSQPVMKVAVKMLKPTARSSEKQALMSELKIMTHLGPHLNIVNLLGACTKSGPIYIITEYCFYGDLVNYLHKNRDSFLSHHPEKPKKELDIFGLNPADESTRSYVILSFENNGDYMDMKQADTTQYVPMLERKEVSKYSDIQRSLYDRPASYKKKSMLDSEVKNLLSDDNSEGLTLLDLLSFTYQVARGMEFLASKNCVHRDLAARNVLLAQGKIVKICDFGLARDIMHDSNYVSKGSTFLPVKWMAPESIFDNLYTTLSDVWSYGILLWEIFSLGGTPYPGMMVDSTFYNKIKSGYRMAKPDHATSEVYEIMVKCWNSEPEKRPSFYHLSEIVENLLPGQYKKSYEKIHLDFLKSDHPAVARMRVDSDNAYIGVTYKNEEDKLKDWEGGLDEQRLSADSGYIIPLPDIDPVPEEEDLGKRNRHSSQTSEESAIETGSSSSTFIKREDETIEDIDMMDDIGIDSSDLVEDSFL
Sequence of Mitogen-activated protein kinase 1 (P28482 whole entry): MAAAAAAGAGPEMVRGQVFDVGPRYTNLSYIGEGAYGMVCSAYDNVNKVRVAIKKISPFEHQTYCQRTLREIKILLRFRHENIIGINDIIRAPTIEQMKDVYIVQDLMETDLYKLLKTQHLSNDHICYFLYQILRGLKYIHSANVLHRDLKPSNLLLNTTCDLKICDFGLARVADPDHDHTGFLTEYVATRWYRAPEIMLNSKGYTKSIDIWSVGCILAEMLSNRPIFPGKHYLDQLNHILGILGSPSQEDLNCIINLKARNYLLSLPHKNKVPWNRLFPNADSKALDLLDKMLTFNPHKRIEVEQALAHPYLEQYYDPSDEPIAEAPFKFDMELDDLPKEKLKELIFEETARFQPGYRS
Sequence of Platelet-derived growth factor receptor beta (P09619 whole entry): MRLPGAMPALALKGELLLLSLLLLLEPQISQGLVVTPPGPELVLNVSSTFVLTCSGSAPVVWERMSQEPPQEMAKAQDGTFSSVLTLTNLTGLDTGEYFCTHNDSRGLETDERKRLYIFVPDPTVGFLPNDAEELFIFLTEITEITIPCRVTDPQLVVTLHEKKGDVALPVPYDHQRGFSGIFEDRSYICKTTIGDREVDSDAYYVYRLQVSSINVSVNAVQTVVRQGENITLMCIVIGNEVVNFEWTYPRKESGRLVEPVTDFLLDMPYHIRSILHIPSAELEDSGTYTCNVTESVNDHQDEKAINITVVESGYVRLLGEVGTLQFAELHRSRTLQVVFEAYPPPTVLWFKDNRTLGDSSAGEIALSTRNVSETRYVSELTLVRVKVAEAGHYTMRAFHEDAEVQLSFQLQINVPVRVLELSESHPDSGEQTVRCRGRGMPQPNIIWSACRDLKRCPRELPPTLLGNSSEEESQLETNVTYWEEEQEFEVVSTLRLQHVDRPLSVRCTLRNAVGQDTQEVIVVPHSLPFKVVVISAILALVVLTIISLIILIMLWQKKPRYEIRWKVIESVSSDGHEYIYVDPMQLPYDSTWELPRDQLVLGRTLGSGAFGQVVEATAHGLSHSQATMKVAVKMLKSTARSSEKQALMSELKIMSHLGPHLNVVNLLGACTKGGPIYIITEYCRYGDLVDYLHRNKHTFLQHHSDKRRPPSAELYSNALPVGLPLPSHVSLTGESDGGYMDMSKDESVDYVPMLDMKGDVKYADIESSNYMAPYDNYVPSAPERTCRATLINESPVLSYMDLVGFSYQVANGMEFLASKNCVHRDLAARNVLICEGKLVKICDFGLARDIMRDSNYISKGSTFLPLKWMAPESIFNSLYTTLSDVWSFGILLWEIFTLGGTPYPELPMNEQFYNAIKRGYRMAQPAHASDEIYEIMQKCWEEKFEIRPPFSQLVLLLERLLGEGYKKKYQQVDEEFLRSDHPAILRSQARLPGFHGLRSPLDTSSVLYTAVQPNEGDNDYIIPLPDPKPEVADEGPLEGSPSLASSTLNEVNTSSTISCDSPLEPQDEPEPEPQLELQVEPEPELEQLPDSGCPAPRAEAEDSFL
Sequence of Proto-oncogene tyrosine-protein kinase Src (P12931 2-536 limits assumed): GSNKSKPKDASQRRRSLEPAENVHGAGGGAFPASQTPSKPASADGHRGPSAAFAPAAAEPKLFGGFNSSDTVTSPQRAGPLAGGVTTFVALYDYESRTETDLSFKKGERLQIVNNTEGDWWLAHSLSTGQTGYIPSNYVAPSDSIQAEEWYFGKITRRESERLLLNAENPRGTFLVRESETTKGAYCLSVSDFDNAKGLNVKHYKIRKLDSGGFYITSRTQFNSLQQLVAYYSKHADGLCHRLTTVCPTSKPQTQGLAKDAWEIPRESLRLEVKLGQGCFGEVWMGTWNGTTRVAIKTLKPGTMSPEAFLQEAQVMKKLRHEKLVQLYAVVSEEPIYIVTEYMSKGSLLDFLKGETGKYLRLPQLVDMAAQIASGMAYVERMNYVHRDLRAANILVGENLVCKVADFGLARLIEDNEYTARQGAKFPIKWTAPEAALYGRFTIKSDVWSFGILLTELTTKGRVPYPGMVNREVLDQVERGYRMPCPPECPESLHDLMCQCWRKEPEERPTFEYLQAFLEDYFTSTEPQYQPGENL
Sequence of Calcium/calmodulin-dependent protein kinase type 1 (Q14012 whole entry): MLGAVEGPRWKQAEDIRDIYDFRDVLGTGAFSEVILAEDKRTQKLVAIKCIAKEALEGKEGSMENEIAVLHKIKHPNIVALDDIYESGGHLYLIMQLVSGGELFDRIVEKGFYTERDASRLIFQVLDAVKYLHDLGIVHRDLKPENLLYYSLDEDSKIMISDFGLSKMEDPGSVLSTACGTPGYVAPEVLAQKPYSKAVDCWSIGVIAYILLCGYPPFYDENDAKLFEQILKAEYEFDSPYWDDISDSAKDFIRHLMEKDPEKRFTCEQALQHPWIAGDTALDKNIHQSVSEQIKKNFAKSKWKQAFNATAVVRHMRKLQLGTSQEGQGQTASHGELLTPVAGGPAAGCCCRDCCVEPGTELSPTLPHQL

IC50 [1]: > 1000 nM
IC50 (BT-474): > 10 µM
inhibition [4]: Dose-Dependent Effect
IC50 (CDK4/Cyclin D3): > 1000 nM
IC50 [5]: > 1000 nM
IC50 (MDA-MB-231): > 10 µM
IC50 [6]: > 1000 nM
inhibition [7]: Dose-Dependent Effect
AUC(0-inf) [8]: 25100 ng·h/mL
IC50 [9]: > 1000 nM
IC50 [11]: > 1000 nM
half-life [12]: 828 min
IC50 [13]: > 1000 nM
IC50 [14]: > 1000 nM
AUC(0-t) at 24 h [15]: 24000 ng·h/mL
IC50 [17]: > 1000 nM
IC50 [18]: > 1000 nM
IC50 (MKN-45): 107 nM
IC50 (BaF3 [19]): < 5 pM
IC50 (Focal adhesion kinase 1): > 1000 nM
IC50 [20]: > 1000 nM
bioavailability [21]: 114%
IC50 (NCI-H1299 [23]): > 10 µM
IC50 [24]: > 1000 nM
Cmax [25]: 2990 ng/mL
Compound: CC(C)n1cc(C(=O)Nc2ccc(Oc3ccnc(NC(=O)C4CC4)c3)c(F)c2)c(=O)n(-c2ccc(F)cc2)c1=O
IC50 (EBC-1): 64 nM
Activity [2]: Non-Toxic
IC50 [3]: > 10 µM
IC50 (KMS-11): > 10 µM
Activity (NCI-H1299 [10]): inactive
inhibition in vivo at 100 mg/kg (U-87 MG): 99.1%
inhibition in vivo at 25 mg/kg (BaF3 [16]): 106%
inhibition in vivo at 5 mg/kg (BaF3 [22]): 106%
